These results are taken from article doi:10.1101/2023.08.28.555062, “Discovery of 2-amide-3-methylester thiophenes that target SARS-CoV-2 Mac1 and repress coronavirus replication, validating Mac1 as an anti-viral target” (bioRxiv, 2023).

“Also recorded” adds a separate entry of the source. Where two headings read alike, the source gives them in different places. A value given as a limit tells only on which side of the number the result lay.

What is called ΔTm is the change in melting temperature against a reference sample. Usually inhibition stands for the change of the read-out against control, counted positive when it falls. What is called IC50 is the concentration needed to halve the response being measured.

The target of data set [1] is T1, SARS-CoV-2 Mac1 (Severe acute respiratory syndrome coronavirus 2, UniProt P0DTD1). The format is binding. The note with it: 100 μM concentration; ± standard deviation of three replicates.
In the next data set the target is T2, ALC1 (Homo sapiens, UniProt Q86WJ1).
T2 sequence (Q86WJ1 704-897 limits assumed): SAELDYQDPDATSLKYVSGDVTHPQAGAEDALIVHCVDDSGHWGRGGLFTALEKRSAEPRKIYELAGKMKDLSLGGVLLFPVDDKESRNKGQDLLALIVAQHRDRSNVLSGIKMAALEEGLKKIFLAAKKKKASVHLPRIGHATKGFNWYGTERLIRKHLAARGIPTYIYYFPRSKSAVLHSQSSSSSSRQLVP
Kind of data set: FRET profiling / potency against ALC1 with YFP-GAP(PAR). The format is binding. Conditions: for inhibition at 1000 µM: read-out: maximum inhibition.

Data set [2] concerns the target T1, SARS-CoV-2 Mac1. Kind of data set: biochemical. In kind it is binding. The note with it: for drop in potency relative to 1: from IC50 values.
For another data set, the system named is human macrodomains. The experiment in a line: FRET profiling against panel of human macrodomains and ARH3. The format is binding.
For the next data set, the target named is PARP9 MD1 (Homo sapiens, UniProt Q8IXQ6). The experiment in a line: FRET profiling / potency against PARP9 MD1. The format is binding.
Another data set concerns viral macrodomains. Kind of data set: FRET profiling against panel of other viral macrodomains. The format is binding. The note with it: up to 100 μM.
Data set [3] deals with macrodomains from SARS-CoV (Severe acute respiratory syndrome coronavirus, UniProt P0C6X7).
The next data set concerns L929 cells. Kind of data set: MTT cell viability assay, L929 cells. The note with it: 24 hours. The format is cell-based, mouse. How it is done:
(§1) DBT, L929, and Calu-3 cells were treated with 27 for 24 hours. Cellular metabolic activity was assessed using a CyQUANT MTT Cell Proliferation Assay (Thermo Fisher Scientific) following manufacturer’s instructions.
(Formazan colour is commonly taken as a measure of viable cells.)

Another data set relates to DBT cells. The experiment in a line: MTT cell viability assay, DBT cells. The note with it: 24 hours. The format is cell-based, mouse. How it is done: as §1
The next data set has as its system SARS-CoV-2. The experiment in a line: SARS-CoV-2 replication in Calu-3 cells with or without IFNγ, plaque assay. The format is cell-based. Conditions: 48 hpi. How it is done: Cells were infected with recombinant MHV-JHM or SARS-CoV-2 at a multiplicity of infection (MOI) of 0.1 PFU/cell with a 45–60 min adsorption phase, unless otherwise stated. Progeny cell-associated and cell-free virus was collected at indicated timepoints and viral titers were determined by plaque assay on Hela-MHVR (MHV) or Vero E6 (SARS-CoV-2) cells. All statistical analysis for viral infections was performed using GraphPad Prism software with an ordinary one-way ANOVA with a Dunnet’s test to correct for multiple comparisons to assess differences between treated and untreated samples. Graphs are expressed as means ± standard errors of the means. The n value represents the number of biological replicates for each group. Significant p values were denoted with asterisks. *, p≤0.05; **, p≤0.01, ***, p≤0.001, ****, p≤0.0001.

Data set [4] deals with macrodomains from MERS-CoV (Middle East respiratory syndrome-related coronavirus, UniProt K9N7C7). The experiment in a line: biochemical. In kind it is binding.
A further data set relates to Calu-3 cells. Kind of data set: MTT cell viability assay, Calu-3 cells. In kind it is cell-based, human. The note with it: 24 hours. How it is done: as §1
The mark [5] stands for this setting: IC50, FRET assay, SARS-CoV-2 Mac1, text and Fig. 1C.
Setting [6] is: FRET assay, SARS-CoV-2 Mac1, text and Fig. 1C, read-out: IC50.
Where [7] appears, read: FRET assay, SARS-CoV-2 Mac1, text and Fig. 1C.
The mark [8] stands for this setting: IC50 (pIC50 ± SEM): IC50, Table 2, synthesized analogs, n=3.
The mark [9] stands for this setting: Table 1, commercial analogs, n=3, given with negative sign, read-out: IC50 (pIC50 ± SEM): pIC50 ± SEM (converted).
Setting [10] is: Table 2, synthesized analogs, n=3, read-out: IC50 (pIC50 ± SEM): IC50 (converted).

macrodomains from MERS-CoV, sequence (K9N7C7 1110-1276 limits assumed): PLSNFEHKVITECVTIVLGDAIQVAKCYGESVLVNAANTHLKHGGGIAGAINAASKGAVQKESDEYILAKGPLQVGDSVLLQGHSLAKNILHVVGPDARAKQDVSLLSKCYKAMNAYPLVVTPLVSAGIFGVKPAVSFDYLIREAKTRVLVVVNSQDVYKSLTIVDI

`Nc1ncnc2c1ncn2[C@H]1O[C@@H](COP(=O)(O)OP(=O)(O)OC[C@H]2O[C@@H](O)[C@H](O)[C@@H]2O)[C@H](O)[C@@H]1O` [ADP-ribose, reference compound]: on SARS-CoV-2 Mac1 [1], the ΔTm stood at 2.0 ± 0.14 °C.
As for `COC(=O)c1c(NC(=O)C2CC=CCC2C(=O)O)sc2c1CCCCC2` (stereo not shown) [Compound 1, 6-{[3-(methoxycarbonyl)-5,6,7,8-tetrahydro-4H-cyclohepta[b]thiophen-2-yl]carbamoyl}cyclohex-3-ene-1-carboxylic acid], the inhibition at 100 µM against ALC1 was not below 50%; on PARP9 MD1 (100 μM), not below 70%. The IC50 on ALC1 (partial inhibition only, read-out: IC50) was 6.8 µM; at SARS-CoV-2 Mac1 [2] (setting [5]), 14 µM; against PARP9 MD1, 64 µM. Besides, at ALC1, the inhibition at 1000 µM was determined as 58%. For the same compound, in the data set on human macrodomains (10 μM and 100 μM), the “inhibition of human macrodomains” value is reported as “selective towards Mac1 over all human macrodomains”. The “inhibition of other tested viral macrodomains” value with viral macrodomains is “did not show effective inhibition”.
Turning to `COC(=O)c1c(NC(=O)CCC(=O)O)sc2c1CCCCC2` [Compound 2], at SARS-CoV-2 Mac1 [1], the ΔTm was 0.3 ± 0.12 °C. In addition, the IC50 at SARS-CoV-2 Mac1 [2] (setting [6]) was found to be 48 µM. Moreover, the “drop in potency relative to 1” value on SARS-CoV-2 Mac1 [2] came out at 3.5 fold.
The matching figures for `COC(=O)c1c(NC(=O)c2ccccc2C(=O)O)sc2c1CCCC2` [Compound 3, 2-{[3-(methoxycarbonyl)-4,5,6,7-tetrahydro-1-benzothiophen-2-yl]carbamoyl}benzoic acid]: 0.7 ± 0.24 °C, 110 µM and 7 fold.
As to `COC(=O)c1c(NC(=O)C2C3CCC(CC3)C2C(=O)O)sc2c1CCCC2` (stereo not shown) [Compound 12], the IC50 result is “completely abolished the inhibitory effect” at SARS-CoV-2 Mac1 [2] (setting [7]) and more than 100 µM on SARS-CoV-2 Mac1 [2] (Table 1, commercial analogs, n=3, read-out: IC50 (pIC50 ± SEM): IC50 (converted)).
Turning to `COC(=O)c1c(NC(=O)C2CCCCC2C(=O)O)sc2c1CCCCC2` (stereo not shown) [Compound 15r, 2-{[3-(methoxycarbonyl)-4H,5H,6H,7H,8H-cyclohepta[b]thiophen-2-yl]carbamoyl}cyclohexane-1-carboxylic acid], the figures for the concentration for half-maximal inhibition (IC50) against SARS-CoV-2 Mac1 [2] (setting [8]) and at SARS-CoV-2 Mac1 [2] (setting [5]) were 6.3 µM and 6.5 µM, respectively.
Consider `COC(=O)c1c(NC(=O)C2CCCCC2C(=O)O)sc2c1CCC2` (stereo not shown) [Compound 16], for which, on SARS-CoV-2 Mac1 [2] (setting [9]), the IC50 is 21.9 µM.
The same measure, in the same setting: in the case of `COC(=O)c1c(NC(=O)C2CCCCC2C(=O)O)sc2c1CCCC2` (stereo not shown) [Compound 17] it was 18.6 µM.
Take `N#Cc1c(NC(=O)C2CC=CCC2C(=O)O)sc2c1CCCCC2` (stereo not shown) [Compound 21, 6-[(3-cyano-5,6,7,8-tetrahydro-4H-cyclohepta[b]thiophen-2-yl)carbamoyl]cyclohex-3-ene-1-carboxylic acid]: the IC50 result was “inactive” on SARS-CoV-2 Mac1 [2] (setting [7]) and more than 100 µM at SARS-CoV-2 Mac1 [2] (setting [10]).
As for `CC(=O)c1c(NC(=O)C2CC=CCC2C(=O)O)sc2c1CCCCC2` (stereo not shown) [Compound 22, 6-[(3-acetyl-5,6,7,8-tetrahydro-4H-cyclohepta[b]thiophen-2-yl)carbamoyl]cyclohex-3-ene-1-carboxylic acid], the results for the IC50 result at SARS-CoV-2 Mac1 [2] (setting [7]) and on SARS-CoV-2 Mac1 [2] (setting [10]) were “inactive” and more than 100 µM, respectively.
Consider `COC(=O)c1c(NC(=O)C2CC=CCC2C(=O)OC)sc2c1CCCCC2` (stereo not shown) [Compound 23, Methyl 2-[6-(methoxycarbonyl)cyclohex-3-ene-1-amido]-4H,5H,6H,7H,8H-cyclohepta[b]thiophene-3-carboxylate], for which, on SARS-CoV-2 Mac1 [2] (Table 2, synthesized analogs, n=3, given with negative sign, read-out: IC50 (pIC50 ± SEM): pIC50 ± SEM (converted)), the IC50 is 10.7 µM.
On to `O=C(O)c1c(NC(=O)C2CCCCC2C(=O)O)sc2c1CCCCC2` (stereo not shown) [Compound 24, 2-[(2-carboxycyclohexane-1-carbonyl)amino]-5,6,7,8-tetrahydro-4H-cyclohepta[b]thiophene-3-carboxylic acid], for which the IC50 entry was “without inhibitory activity” against SARS-CoV-2 Mac1 [2] (setting [7]) and more than 100 µM at SARS-CoV-2 Mac1 [2] (setting [10]).
On SARS-CoV-2 Mac1 [2] (setting [8]), `COC(=O)c1c(NC(=O)[C@H]2CCCC[C@@H]2C(=O)O)sc2c1CCCCC2` [Compound 25, (1S,2S)-2-{[3-(methoxycarbonyl)-4H,5H,6H,7H,8H-cyclohepta[b]thiophen-2-yl]carbamoyl}cyclohexane-1-carboxylic acid] had an IC50 of more than 100 µM.
For the compound `COC(=O)c1c(NC(=O)[C@@H]2CCCC[C@H]2C(=O)O)sc2c1CCCCC2` [Compound 26, (1R,2R)-2-{[3-(methoxycarbonyl)-4H,5H,6H,7H,8H-cyclohepta[b]thiophen-2-yl]carbamoyl}cyclohexane-1-carboxylic acid], the IC50 at SARS-CoV-2 Mac1 [2] (setting [8]) is 2.7 µM; on SARS-CoV-2 Mac1 [2] (IC50 (pIC50 ± SEM): pIC50 ± SEM, Table 2, synthesized analogs, n=3, given with negative sign) it was 2.75 µM.
For the compound `COC(=O)c1c(NC(=O)[C@@H]2CCCC[C@H]2C(=O)O)sc2c1CCCCCC2` [Compound 27, (1R,2R)-2-{[3-(methoxycarbonyl)-4H,5H,6H,7H,8H,9H-cycloocta[b]thiophen-2-yl]carbamoyl}cyclohexane-1-carboxylic acid], the inhibition % in [3] was found to be 64%. In addition, in the data set with L929 cells, the “cytotoxicity / viability (MTT)” value is “does not affect the viability; also recorded: did not have any cellular cytotoxicity”. Moreover, on ALC1, the IC50 stood at 3 µM, the inhibition at 10 µM was not below 50%, the inhibition at 100 µM is not below 50% and the inhibition at 1000 µM was found to be 63%. Also, in the data set on DBT cells, the “cytotoxicity / viability (MTT)” value is “does not affect the viability; also recorded: did not have any cellular cytotoxicity”. Besides, the “inhibition of human macrodomains” value with human macrodomains is recorded as “did not show effective inhibition”. Besides, the “antiviral effect on SARS-CoV-2” value in the data set on SARS-CoV-2 (absence of IFNγ) is “minimal, if any, antiviral effects”. The “reduction in virus replication” value in the data set with SARS-CoV-2 (presence of IFNγ (100 U/ml), 25 μM) is on record as 10–15 fold. In data set [4], this compound gave an IC50 of more than 100 µM and an inhibition % of 43%. Moreover, in the data set on Calu-3 cells, the “cytotoxicity / viability (MTT)” value is “does not affect the viability; also recorded: did not lead to any cytotoxicity”.
For the compound `COC(=O)c1c(NC(=O)[C@@H]2CCCC[C@H]2C(=O)OC)sc2c1CCCCCC2` [Compound 28, Methyl 2-[(1R,2R)-2-(methoxycarbonyl)cyclohexaneamido]-4H,5H,6H,7H,8H,9H-cycloocta[b]thiophene-3-carboxylate], the IC50 entry on SARS-CoV-2 Mac1 [2] (setting [7]) was “completely inactive”; at SARS-CoV-2 Mac1 [2] (setting [10]), more than 100 µM.
